Here are results for three compounds from PubChem BioAssay AID1259411 (Chemical Carcinogenesis Research Information System (CCRIS), 2018).

SMILES strings stand for the structures. The source made the active and inactive calls. The rule behind the calls is not given here.

The subject of the data set is rodent carcinogenicity bioassays, tumor incidence. In words: CCRIS carcinogenicity studies. In short, it runs like this:
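Archive of carcinogenicity, mutagenicity, tumor promotion and tumor inhibition results drawn from journals, NCI reports and other sources, expert-reviewed; covers 1985-2011 and is no longer updated.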

Consider `C[N+](C)(C)NCCC(=O)[O-]`, for which the carcinogen call is, setting by setting: (Species: MOUSE, Strain/Sex: B6D2F1/FEMALE, Route: GAVAGE, Dose: 0, 400, 4000 MG/KG BW IN 0.2 ML WATER 3X/WK FOR 22 MONTHS (STUDY DURATION: 22 MONTHS), Dose: 0, 400, 4000 MG/KG BW IN 0.2 ML WATER 3X/WK FOR 22 MONTHS (STUDY DURATION: 22 MONTHS)) “inactive; negative”; (Species: MOUSE, Strain/Sex: C3H/FEMALE, Route: ORAL, Dose: 0, 0.1% IN DRINKING WATER FOR LIFETIME (STUDY DURATION: LIFETIME)) “inactive; negative”; (Species: MOUSE, Strain/Sex: SHR/FEMALE, Route: SUBCUTANEOUS, Dose: 0, 0.1 MG IN ISOTONIC SALINE 1X/D FOR 5 D WITH 4-WK INTERVALS FOR LIFETIME (STUDY DURATION: LIFETIME)) “inactive; negative”.
Regarding `C[C@]12CC[C@@H]3c4ccc(O)cc4CC[C@H]3[C@@H]1C[C@@H](O)[C@@H]2O`, the carcinogen call runs as follows: (Species: HAMSTER, Route: SUBCUTANEOUS IMPLANT, Tumor Site: Type of Lesion: KIDNEY) “active; positive”; (Species: HUMAN, Tumor Site: Type of Lesion: UTERUS (ENDOMETRIUM)) “active; positive”; (Species: MOUSE, Route: SUBCUTANEOUS IMPLANT, Tumor Site: Type of Lesion: MAMMARY GLAND) “active; positive”.
Turning to `CN(C)CCOc1ccc(/C(=C(/CCCl)c2ccccc2)c2ccccc2)cc1`, the carcinogen call (Species: RAT, Strain/Sex: SPRAGUE-DAWLEY/FEMALE, Route: GAVAGE, Dose: 0, 12, 24 MG/KG IN 0.5% CARBOXYMETHYLCELLULOSE 1/D 7 D/WK FOR UP TO 12 MO (STUDY DURATION: 15 MO), Dose: 0, 12, 24 MG/KG IN 0.5% CARBOXYMETHYLCELLULOSE 1/D 7 D/WK FOR UP TO 12 MO (STUDY DURATION: 15 MO)) is “inactive; negative”; the carcinogen call (Species: RAT, Strain/Sex: SPRAGUE-DAWLEY/FEMALE, Route: ORAL, Dose: 0, 0.12, 1.2, 5, 12 MG/KG/D IN DIET FOR DURATION OF STUDY (STUDY DURATION: 104 WK), Dose: 0, 0.12, 1.2, 5, 12 MG/KG/D IN DIET FOR DURATION OF STUDY (STUDY DURATION: 104 WK)) is “inactive; negative”; the carcinogen call (Species: RAT, Strain/Sex: SPRAGUE-DAWLEY/MALE, Route: ORAL, Dose: 0, 0.12, 1.2, 5, 12 MG/KG/D IN DIET FOR DURATION OF STUDY (STUDY DURATION: 104 WK), Dose: 0, 0.12, 1.2, 5, 12 MG/KG/D IN DIET FOR DURATION OF STUDY (STUDY DURATION: 104 WK)) was “inactive; negative”.
